Laboratory results from patent US7345020B2, “Mimetics of CD4 that inhibit immune response” (Thomas Jefferson University, priority 1995, dated 2008).
“Also recorded” adds a separate entry of the source. Positions of bridges follow the written chain, without caps; N, C: chain ends. Residues, ends and D or L forms follow the SMILES beside them.

Assays:
[1] = tested on: experimental allergic encephalomyelitis (EAE); assay: EAE inhibition in vivo (SJL EAE model); set-up: species or system mouse; conditions: for maximum mean EAE severity grade: SJL mice, 0.5 mg i.v. on day 12, 0-5 scale, untreated control maximum 2.0
Method: The C—C′ loop peptides were initially tested for efficacy in the SJL EAE model. In untreated animals, a high incidence of disease was observed 15-22 days after two s.c. inoculations of 1 mg of crude murine spinal cord homogenate in complete Freund's adjuvant. The severity of the disease was scored daily using the established 0-5 scale that describes the level of ascending paresis, Korngold, R., et al., 1986, Immunogenetics 24:309-315. The level of the mean EAE severity grade of mice for the untreated control group reached a maximum of 2.0. […] Also shown are the results of groups of mice that received the rD-mPGPtide, a mimic of residues 86-104 of murine homolog of CD4, which was described in Jameson et al. 1994, Nature 368:744-746.

[2] = tested on: human peripheral blood lymphocytes (responder cell alloreactive proliferation); conditions: for activity of cyclic CNSNQIC compared with this linear peptide in human MLR: linear peptides derived from the same C—C′ region
Method: For this assay, fresh peripheral blood lymphocytes from two different donors are co-cultured; the cells of one donor were irradiated and served as stimulators. Proliferation of these activated T cells was measured by measuring the incorporation of ^3H-thymidine at various timepoints.
For human MLR, 50 ml of whole blood was collected into anti-coagulant (ACD, acid citrate dextrose) containing tubes. In 50 ml conical tubes, 20 ml of blood was layered over 20 ml Ficoll 1077 (Sigma Chemical Co., St. Louis, Mo.) and centrifuged at 2000 rpm for 35-40 min at 15-20° C. Buffy coats and serum were collected in 3× volume of PBS centrifuged at 1500 rpm for 15 min at 15-20° C. Supernatants were discarded, cells were washed 2× in 50 ml PBS and resuspended in RPMI supplemented with 10% heat-inactivated (56°, 30 min) human serum (cat# H4522, Sigma), 50 IU/ml pen/strep and 2 mM (1% of 200 mM stock) L-glutamine (both from BioWhitaker).
In a 96-well flat bottom plate 1×10^5 responders were plated with 2×10^5 irradiated (3000 rad) simulators/well (added in 100 μl each), and incubated for 6, 7 or 8 days at 37° C., 7% CO2. Peptide analogues were added to quadruplicate wells, at a concentration of 100 μM (5 mg/ml stock) or titrations thereof, immediately after cells were plated. For radiolabelling, the cells were incubated with 1 μCi [^3H] TdR/well (25 μl) (diluted from 1 mCi/ml stock, Amersham) for the final 6 hours of incubation. Cells were harvested using a fiberfilter cell harvester (e.g., Harvester 96, Tomtec) and counted in a Beta Counter of Beta plate reader (1205 BS Betaplate Liquid Scintillation Counter, Wallac) with scintillation fluid.

[3] = tested on: murine spleen responder cells with irradiated C3H stimulator cells; assay: Murine mixed lymphocyte reaction; assay type: cell-based, mouse; conditions: in vitro
Method: Mice were sacrificed and spleens aseptically removed. Cell suspensions were made by gently pressing spleens through nylon mesh, washing cells with RPMI 1640 and hypotonic lysis of red blood cells. After 3 washes in RPMI 1640, cells were resuspended in complete medium (RPMI 1640, 10% heat inactivated FCS, 2 mM L-glutamine, penicillin/streptomycin) and 5×10^5 responder cells incubated with 1×10^5 stimulator cells (C3H spleen cells, 2000 rad irradiated) in triplicate in round bottom 96 well plates (final volume 200 μl), and incubated with the indicated concentration of peptide (0.01, 0.1, 1, 10, 100 and 1000 μM peptide) for 5 days at 37° C., 5% CO2. 1 μCi/WELL OF [^3H] TdR was added 12 hours before thymidine incorporation was measured. Labelled DNA from cells was harvested onto glass fiber filters with a PHD cell harvester (Cambridge, Mass.), and CPM determined by liquid scintillation counting with the use of a 1209 Rackbeta (LKB, Piscataway, N.J.).

| Compound | maximum mean EAE severity grade [1] | effect on EAE in mice, in words [1] | activity of cyclic CNSNQIC compared with this linear peptide in human MLR [2] | other results |
| --- | --- | --- | --- | --- |
| CC[C@H](C)[C@@H]1NC(=O)[C@H](CCC(N)=O)NC(=O)[C@H](CC(N)=O)NC(=O)[C@H](CO)NC(=O)[C@H](CC(N)=O)NC(=O)[C@@H](N)CSSC[C@@H](C(=O)O)NC1=O [cyclic CNSNQIC, CNSNQIC] (H-CNSNQIC-OH; disulfide 1-7; N-terminus and C-terminus assumed) | 1.0 | effective to ameliorate EAE; also recorded: inhibitor of EAE in mice | – | inhibition of human T cell activation (suppressive effect) ([2]; 3 h): 54.4% |
| CNSNQIC (linear, no disulfide) [linear CNSNQIC] | 1.0 | – | – | – |
| KNSNQ | – | – | significantly higher activity | – |
| KNSNQI | – | – | significantly higher activity | – |
| NSNQI | – | – | significantly higher activity | – |
| YCNSNQIC | – | inhibitory activity comparable to the cyclic peptide CNSNQIC | – | inhibitory activity in murine MLR, in words [3]: inhibitory activity comparable to the cyclic peptide CNSNQIC; inhibitory activity in human MLR / human T cell proliferation, in words ([2]; in vitro): inhibitory activity comparable to the cyclic peptide CNSNQIC |
